The values that follow come from patent US5411933A, “Bromopropargyl quarternary ammonium compounds having antimicrobial activity” (Rohm & Haas Company, priority 1994, dated 1995).

For one experiment, the system named is Escherichia coli. The experiment is described as follows: minimum inhibitory concentration, broth two-fold serial dilution test, Escherichia coli. The experiment is classed as cell-based, Escherichia coli ATCC 11229. Particulars: for MIC: Escherichia coli, ATCC11229, Escherichia coli ATCC 11229, TSB media, lowest concentration with complete inhibition of growth, read-out: MIC (TSB media) Ecol. The method, then:
(§1) Bactericidal and fungicidal evaluations of the compounds of Example 5 were carried out.
(§2) A minimum inhibitory concentration (MIC) value is obtained using a broth, two-fold serial dilution test performed as follows: A stock solution or dispersion of the test compound, typically at a concentration of 1%, is made in a 5:3:2 solvent solution of acetone, methanol, and water. A volume of the stock solution is dispensed into culture media to give an initial starting test concentration of 500 ppm compound.
(§3) When the test is ready to be done, each vessel in the dilution series, except the first vessel, contains an equal volume of compound free broth. The first vessel contains twice the volume of broth with the starting concentration of test compound. One half of the broth from the first vessel is transferred to the second vessel. After being mixed, one half the resulting volume is removed from the second vessel and transferred to the third vessel. The entire cycle is repeated sufficiently to give a series of concentrations amounting to 500, 250, 125, 63, 31, 16, 8 and 4, 2, 1, 0.5, 0.25 ppm respectively.
(§4) Each vessel is then inoculated with a cell suspension of the appropriate test organism. Bacteria are grown in broth, fungi or agar slants for a time and at a temperature appropriate to the species being tested, and algae are a mixture of green algae and blue-green bacteria grown in a nutrient media. At the end of the growth period, in the case of bacteria, the broth is vortexed to disperse the cells.
(§5) The vessels are then incubated at the appropriate temperature. After the incubation, the vessels are examined for growth/no growth. The minimum inhibitory concentration (MIC) is defined as the lowest concentration of compounds that results in complete inhibition of growth of the test organism.

The next experiment concerns Rhodotorula rubra. Put plainly: minimum inhibitory concentration, broth two-fold serial dilution test, Rhodotorula rubra. The experiment is classed as cell-based. Particulars: lowest concentration with complete inhibition of growth; for MIC: Rhodotorula, TSB media, read-out: MIC (TSB media) Rrub. The protocol: as §1, §2, §3, §4
(§6) In the case of fungi, the spores are harvested by pipetting water onto the slant and dislodging the spores with a sterile loop. The cell/spore suspension is standardized by controlling incubation time, temperature, and the volume of the diluent. The suspension is then used to inoculate the vessels containing the broth compound.
as §5
4. Rhodotorula rubra Rrub

Another experiment concerns Aspergillus niger. Put plainly: minimum inhibitory concentration, broth two-fold serial dilution test, Aspergillus niger. Type of experiment: cell-based, Aspergillus niger ATCC 6275. Particulars: for MIC: Aspergillus niger, ATCC6275, Aspergillus niger ATCC 6275, TSB media, lowest concentration with complete inhibition of growth, read-out: MIC (TSB media) Anig. The protocol:
as §1, §2, §3, §4, §6, §5
3. Aspergillus niger 6275 Anig

In the next experiment the test system is Pseudomonas aeruginosa. The experiment is described as follows: minimum inhibitory concentration, broth two-fold serial dilution test, Pseudomonas aeruginosa. The experiment is classed as cell-based, Pseudomonas aeruginosa ATCC 15442. Particulars: for MIC: Pseudomonas aeruginosa, ATCC15442, Pseudomonas aeruginosa ATCC 15442, TSB media, lowest concentration with complete inhibition of growth, read-out: MIC (TSB media) Psae. The protocol:
as §1, §2, §3, §4, §5
1. Pseudomonas aeruginosa

One may read the MIC as the least concentration at which growth counts as inhibited. Turning to `CCCCCCCC[N+](C)(CC#CBr)CCCCCCCC` [Compound 25, methyldioctyl(3-bromopropargyl) ammonium 4-methylbenzenesulfonate], the MIC with Escherichia coli amounted to 32 µg/mL; with Rhodotorula rubra, 6.3 µg/mL; with Aspergillus niger, 12.5 µg/mL; with Pseudomonas aeruginosa, 500 µg/mL.

Turning to `CCCCCC[N+](CC#CI)(CCCCCC)CCCCCC` [Compound 31, reference compound], the MIC with Escherichia coli is 63 µg/mL; with Rhodotorula rubra it was 6.3 µg/mL; with Aspergillus niger, 12.5 µg/mL; with Pseudomonas aeruginosa, more than 500 µg/mL.

Take `CCCCCCCCCCCCCC[N+]1(CC#CI)CCOCC1` [Compound 32, reference compound]: the MIC in the experiment with Escherichia coli stood at 8 µg/mL; in the experiment with Rhodotorula rubra, 4 µg/mL; in the experiment on Aspergillus niger it was 4 µg/mL; in the experiment with Pseudomonas aeruginosa, 125 µg/mL.

With `CCCCCCCCCCCCCC[N+]1(CC#CI)CCCCC1` [Compound 33, reference compound], the MIC in the experiment with Escherichia coli is 4 µg/mL; in the experiment on Rhodotorula rubra it was 2 µg/mL; in the experiment with Aspergillus niger it was 4 µg/mL; in the experiment with Pseudomonas aeruginosa it was 125 µg/mL.

In the case of `CCCCCCCC[N+](CC#CI)(CCCCCCCC)CCCCCCCC` [Compound 34, reference compound], the minimal inhibitory concentration (MIC) is more than 500 µg/mL in the experiment with Escherichia coli, 1.6 µg/mL with Rhodotorula rubra, 1.6 µg/mL with Aspergillus niger and 1.6 µg/mL in the experiment on Pseudomonas aeruginosa.

Regarding “dimethyldodecyl ammonium 4-methylbenzenesulfonate [Compound 21]”, in the experiment on Escherichia coli (Escherichia coli ATCC 11229, lowest concentration with complete inhibition of growth), the “MIC (TSB media) Ecol” value is reported as 32 ppm. Besides, the “MIC (TSB media) Rrub” value in the experiment with Rhodotorula rubra came to 3.2 ppm. Further, in the experiment on Aspergillus niger (Aspergillus niger ATCC 6275, lowest concentration with complete inhibition of growth), the “MIC (TSB media) Anig” value was determined as 6.3 ppm. For the same compound, in the experiment with Pseudomonas aeruginosa (Pseudomonas aeruginosa ATCC 15442, lowest concentration with complete inhibition of growth), the “MIC (TSB media) Psae” value worked out at 250 ppm.
